The values below come from US6472435B1, “Anti-tumor agents” (Astrazeneca AB, priority 1998, dated 2002).

Assay [1] concerns spheroidal aggregates of EMT6 murine breast cancer cells. Kind of assay: Test (c): growth inhibition of spheroidal aggregates of EMT6 murine breast cancer cells. The assay is classed as cell-based. Conditions: Mus musculus, 2 hours treatment, stasis of spheroid growth over 2-3 weeks, read-out: stasis ED50. The method, then:
(c) An in vitro assay which determines the ability of a test compound to inhibit the growth in an oxygenated culture medium of spheroidal aggregates (˜400 microns in diameter) of EMT6 murine breast cancer cells. As the oxygen diffusion distance through tissue is approximately 120-150 microns, such spheroids have a chronically hypoxic central population of cells and a well oxygenated outer layer of cells. The multicellular spheroids were treated with test compounds for 2 hours as a well oxygenated suspension culture. The spheroids were subsequently washed free of test compound and selected spheroids were transferred to static culture so that the effect of treatment on volume growth could be measured. […]
EMT6 murine breast cells (obtained from P. R. Twentyman, MRC Oncology and Radiotherapeutics Unit, Cambridge, UK) were harvested from exponentially growing monolayer cultures and approximately 1×10^6 cells were used to inoculate a 500 ml spinner culture vessel containing Eagles minimal essential medium (200 ml; supplemented with 10% foetal calf serum, glutamate, non-essential amino acids, penicillin and streptomycin). […] The area of each spheroid was measured using an image analyser and the 24-well plates were transferred to a CO2 incubator at 37° C. The spheroids were then re-measured every 2-3 days for up to 21 days, with fresh culture medium (250 μl) being added to each well every 3 days. […]

Assay [2] relates to T18 murine breast tumours. Kind of assay: Test (d): in vivo growth delay of T18 murine breast tumours in Balb/c mice. Conditions: single bolus dose of 20 mg/kg intraperitoneally. From the text: (d) An in vivo assay in a group of Balb/c mice which determines the ability of a test compound to delay the growth of T18 murine breast tumours. The detailed methodology was as follows:
T18 murine breast tumour tissue was routinely maintained by animal to animal passage. To prepare a batch of tumours for an experiment, tumour tissue was removed from several donor Balb/c mice and placed in saline. Outer tissue was removed and healthy looking regions of tumour were cut into approximately 1 mm^3 pieces and implanted subcutaneously by trocar into the left flanks of anaesthetised female Balb/c mice. After 2-3 weeks, most of the implants had grown to approximately 8 mm in diameter. The animals were placed randomly into groups of 6-7, rejecting any with very large, or small, tumours. Each test compound was dissolved in DMSO and diluted with Cremophor EL followed by saline, to give a 1:1:3 mixture of DMSO, Cremophor EL and saline. Each test compound was administered by the intraperitoneal route as a single bolus dose (0.1 ml per 10 g body weight of each animal). Control animals received vehicle alone. All mice were weighed daily and the dimensions (length and width) of each tumour were measured every 2-3 days using vernier calipers. […] Growth curves were constructed and the effect of treatment was assessed using a growth delay endpoint.

pEC50: −log10 of the molar value.

Regarding `CCCC1=C(C(C)(C)CC(=O)N(C)c2ccc(N(CCCl)CCCl)cc2)C(=O)C=C(C)C1=O` [Example 1, N-{4-[bis(2-chloroethyl)amino]phenyl}-3-(5-methyl-3-propyl-1,4-benzoquinon-2-yl)-3-methyl-N-methylbutyramide], the pEC50 in assay [1] is roughly 5.40. Moreover, the growth delay result in assay [2] is “approximately 9 days”.
